According to patent publication US20050182025A1, “Amidinylphenyl compounds and their use as fungicides” (priority 2002, published 2005):

Experiments:
Type in all cases: in vivo
[1] = system: Erysiphe graminis f. sp. tritici; assay: Test A: preventive spray on wheat seedlings, wheat powdery mildew, disease rating; details: wheat seedlings sprayed to run-off, inoculated the following day with Erysiphe graminis f. sp. tritici, rated after 7 days at 20° C.; test concentration not given
How it was run: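 Wheat seedlings sprayed to run-off with compound suspension (200 ppm ≈ 500 g/ha) in acetone/water with surfactant, inoculated next day with Erysiphe graminis f. sp. tritici spores. After 7 days at 20 °C, disease rated 0–100 as % control relative to untreated plants.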

Puccinia recondita = assay: Test B: preventive spray on wheat seedlings, wheat leaf rust, disease rating; details: wheat seedlings sprayed to run-off, inoculated the following day with Puccinia recondita, 24 h saturated atmosphere then 6 days at 20° C.; test concentration not given
How it was run: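 Compound suspended in acetone/water (50/50) with 250 ppm Trem 014 surfactant, sprayed to run-off on wheat seedlings (200 ppm ≈ 500 g/ha); P. recondita spores inoculated next day. Plants held 24 h saturated at 20° C, then 6 days at 20° C; disease rated as % control relative to untreated (100 = full control).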

Septoria nodorum = assay: Test C: preventive spray on wheat seedlings, Septoria glume blotch, disease rating; details: wheat seedlings sprayed to run-off, inoculated the following day with Septoria nodorum, 48 h saturated atmosphere then 9 days at 20° C.; test concentration not given
How it was run: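 Wheat seedlings were sprayed to run-off with compound suspensions in acetone/water containing 250 ppm Trem 014 (200 ppm equals 500 g/ha), then inoculated with Septoria nodorum spores next day. Plants were held 48 h saturated at 20° C., then 9 days at 20° C. Disease control was rated 0–100 relative to controls.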

SMILES | Test A disease control rating (100 = 100% disease control, 0 = no disease control relative to the controls) [1] [%] | Test B disease control rating (100 = 100% disease control, 0 = no disease control relative to the controls) (Puccinia recondita) [%] | Test C disease control rating (100 = 100% disease control, 0 = no disease control relative to the controls) (Septoria nodorum) [%]
CCN(C)C(=S)Nc1cc(Cl)c(OCCC[Si](C)(C)C)cc1C [compound 169] | 99 | 100 | 100
CCN(CC)C(=S)Nc1cc(Cl)c(OCCC[Si](C)(C)C)cc1C [compound 170] | 99 | 100 | 99
Cc1cc(OCCC[Si](C)(C)C)c(Cl)cc1N=CN(C)C [compound 172] | 100 | 100 | 100
CC(=Nc1cc(Cl)c(OCCC[Si](C)(C)C)cc1C)N(C)C [compound 173] | 32 | 90 | 99
Cc1cc(OCCCC(C)(C)C)c(Cl)cc1N=CN(C)C [compound 175] | 97 | 100 | 100
Cc1cc(OCCCC(C)(C)C)c(Cl)cc1N=CN(C)C [compound 176] | 43 | 99 | 100
CCN(CC)C(=S)Nc1cc(Cl)c(OCCCC(C)(C)C)cc1C [compound 177] | 96 | 100 | 100
CCN(C)C(=S)Nc1cc(Cl)c(OCCCC(C)(C)C)cc1C [compound 178] | 100 | 100 | 100
CCN(CC)C(=S)Nc1cc(Cl)c(OCCC[Si](C)(C)C)c(Cl)c1C [compound 179] | 20 | 23 | 0
Cc1c(NC(=S)N(C)C)cc(Cl)c(OCCC[Si](C)(C)C)c1Cl [compound 180] | 75 | 58 | 0
CCN(C)C(=S)Nc1cc(Cl)c(OCCC[Si](C)(C)C)c(Cl)c1C [compound 181] | 100 | 100 | 67
CCN(C)C=Nc1cc(Cl)c(OCCC[Si](C)(C)C)c(Cl)c1C [compound 182] | 98 | 79 | 67
CN(C)C(=S)Nc1cc(Cl)c(OCCC[Si](C)(C)C)cc1Cl [compound 183] | 99 | 85 | 90
CCN(C)C(=S)Nc1cc(Cl)c(OCCC[Si](C)(C)C)cc1Cl [compound 184] | 100 | 99 | 78
CCN(CC)C(=S)Nc1cc(Cl)c(OCCC[Si](C)(C)C)cc1Cl [compound 185] | 99 | 98 | 63
CN(C)C(=S)Nc1cc(Cl)c(OCCCC(C)(C)C)cc1Cl [compound 186] | 94 | 9 | 0
CCN(C)C(=S)Nc1cc(Cl)c(OCCCC(C)(C)C)cc1Cl [compound 187] | 100 | 99 | 78
CCN(CC)C(=S)Nc1cc(Cl)c(OCCCC(C)(C)C)cc1Cl [compound 188] | 100 | 79 | 90
Cc1cc(NC(=O)NCC(C)C)c(C)cc1N=CN(C)C [compound 189] | 0 | 9 | 0
Cc1cc(NC(=O)NCC(C)(C)C)c(C)cc1N=CN(C)C [compound 190] | 0 | 68 | 0
CCN(CC)C(=S)Nc1cc(C)c(OCCCC(C)(C)C)cc1C [compound 191] | 63 | 99 | 91
Cc1cc(OCCCC(C)(C)C)c(C)cc1NC(=S)N(C)C [compound 192] | 99 | 100 | 100
Cc1cc(NC(=O)N(C)CC(C)(C)C)c(C)cc1N=CN(C)C [compound 193] | 0 | 23 | 0
CCN(C)C(=S)Nc1cc(C)c(OCCCC(C)(C)C)cc1C [compound 194] | 99 | 100 | 100
CCN(C)C=Nc1cc(C)c(OCCC[Si](C)(C)C)cc1C [compound 196] | 100 | 100 | 100
